{
  "source": "paper PMC10028264",
  "about": "“Synergistic antifungal interaction of N-(butylcarbamothioyl) benzamide and amphotericin B against Cryptococcus neoformans” (Frontiers in Microbiology, 2023)",
  "molecular_target": "T1, cryptococcal urease (Cryptococcus neoformans, UniProt O13465)",
  "T1 construct": "100 μL of crude protein extract; endogenous in cells; host or cells: Cryptococcus neoformans ATCC 34872, crude lysate (glass-bead lysis, supernatant)",
  "T1 sequence (O13465 whole entry)": "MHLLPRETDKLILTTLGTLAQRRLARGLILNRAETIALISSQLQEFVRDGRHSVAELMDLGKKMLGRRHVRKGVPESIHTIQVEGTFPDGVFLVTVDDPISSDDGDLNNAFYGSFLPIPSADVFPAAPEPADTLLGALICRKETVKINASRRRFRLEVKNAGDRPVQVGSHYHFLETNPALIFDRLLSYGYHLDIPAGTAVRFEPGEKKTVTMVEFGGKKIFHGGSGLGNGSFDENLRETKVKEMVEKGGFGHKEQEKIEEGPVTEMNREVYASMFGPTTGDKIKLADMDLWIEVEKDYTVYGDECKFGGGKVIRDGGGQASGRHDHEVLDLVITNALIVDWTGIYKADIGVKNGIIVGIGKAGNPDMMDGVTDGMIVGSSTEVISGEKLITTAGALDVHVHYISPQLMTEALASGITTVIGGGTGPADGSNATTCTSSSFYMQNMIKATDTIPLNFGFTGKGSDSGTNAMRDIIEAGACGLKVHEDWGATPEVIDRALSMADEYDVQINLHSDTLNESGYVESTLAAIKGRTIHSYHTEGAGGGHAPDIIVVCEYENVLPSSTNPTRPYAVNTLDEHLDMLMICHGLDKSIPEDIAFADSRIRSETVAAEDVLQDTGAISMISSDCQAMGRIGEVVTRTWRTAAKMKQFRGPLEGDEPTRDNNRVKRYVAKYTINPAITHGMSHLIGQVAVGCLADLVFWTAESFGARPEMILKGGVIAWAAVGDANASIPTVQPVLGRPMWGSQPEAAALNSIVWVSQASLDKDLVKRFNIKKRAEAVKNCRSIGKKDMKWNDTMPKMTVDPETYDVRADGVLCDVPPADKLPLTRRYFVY",
  "test": "Urease activity inhibition test (indophenol method, crude protein extract)",
  "type": "biochemical",
  "conditions": "C. neoformans ATCC 34872 crude protein extract; indophenol method",
  "description": "Five colonies of C. neoformans were suspended in 100 μL SD broth and inoculated onto SD agar using a Drigalski spreader, and the culture was incubated at 37°C for 48 h. Afterward, all fungal growth was gently scraped and transferred to conical flasks containing 300 mL of SD broth and incubated with shaking (150 rpm) at 37°C for further 48 h. Cells were centrifuged (6,000 × g, 10 min) and washed three times with distilled water. The protein extraction was performed according to [Moller et al. (2016)] with modifications. Briefly, fungal cells were resuspended in 10 mL of chilled lysis buffer consisting of 100 μM Nα-tosyl-L-lysine chloromethyl ketone hydrochloride (TLCK), 1 mM EDTA, 10% glycerol and 0.15 M phosphate-buffered saline (PBS), pH 8.0. […] Then, the cell debris was removed by centrifugation (6,000 × g, 15 min, 4°C), and the protein content of the resulting supernatant was quantified using the […].\nThe inhibition of urease activity was evaluated by the indophenol method ([Weatherburn, 1967]). […] The reaction mixtures were incubated for further 10 min at 45°C, and the optical density (OD) was measured at 630 nm. Urease inhibition percentage (I%) was calculated according to the equation: I% = 100–(ODBTU–01/ODcontrol) × 100. […]",
  "data": [
    {"smiles": "NC(N)=S", "note": "[thiourea, Thiourea, reference compound]", "values": [
      {"measurement": "IC50 urease activity", "result": 38.6, "unit": "µg/mL"}
    ]}
  ]
}
